# Source: ChEMBL document CHEMBL4619745, “Identification of 2-((2,3-dihydrobenzo[b][1,4]dioxin-6-yl)amino)-N-phenylpropanamides as a novel class of potent DprE1 inhibitors” (Bioorg Med Chem Lett, 2020)
# Assays:
# [1] = test system: Mycobacterium tuberculosis; test: Ratio of MIC for Mycobacterium tuberculosis H37Rv overexpressing DprE1 to MIC for Mycobacterium tuberculosis H37Rv; assay type: functional
# [2] = test system: Mycobacterium tuberculosis; test: Antimycobacterial activity against Mycobacterium tuberculosis H37Rv overexpressing DprE1; assay type: functional
smiles,measurement,setting,value
CC(Nc1ccc2c(c1)OCCO2)C(=O)Nc1ccc(Br)cc1 (racemic),Ratio,[1],8
same,MIC,[2],62.5 µM
